Strand notation (5' to 3'): a small letter for the sugar, then the base; units joined by * are phosphorothioate-linked, units joined directly phosphodiester-linked; [ ] holds rarer units or linkages, { } end groups; capitals alone tell only the bases. e = 2'-O-(2-methoxyethyl) (MOE); [5mC] = 5-methylcytosine; d = 2'-deoxy (DNA)
Assays:
Type in all cases: in vivo
[1] = Body and organ weights of cynomolgus monkeys (Example 46); parameters: Liver weight / Spleen weight / Kidney weight: unit not given here; conditions: for Kidney weight / Liver weight / Spleen weight: day 55, after euthanasia
Experimental: (§1) Groups, each consisting of two male and two female monkeys, were injected subcutaneously with 25 mg/kg of ISIS 416850, ISIS 449709, ISIS 445522, ISIS 449710, ISIS 449707, ISIS 449711, ISIS 449708, 416858, and ISIS 445531. Antisense oligonucleotide was administered to the monkeys at 25 mg/kg three times per week for week 1 and 25 mg/kg twice per week for weeks 2 to 8. A control group, consisting of two male and two female monkeys was injected subcutaneously with PBS according to the same dosing regimen. Body weights were taken 14 days and 7 days before the start of treatment and were then measured weekly throughout the treatment period. Blood samples were collected 14 days and 5 days before the start of treatment and subsequently several times during the dosing regimen for PT and aPTT measurements, and measurement of various hematologic factors. On day 55, the monkeys were euthanized by exsanguination while under deep anesthesia, and organs harvested for further analysis.
Organ weights were taken after the animals were euthanized on day 55, and livers, kidneys and spleens were harvested.

[2] = test system: IL-1β, IL-6, IFN-γ, TNF-α, IL-8, MIP-1α, MCP-1, MIP-1β, RANTES; assay: Cytokine and chemokine assays in cynomolgus monkeys (Example 46)
Experimental: as §1
Blood samples obtained from all monkey groups were sent to Pierce Biotechnology (Woburn, Mass.) for measurements of chemokine and cytokine levels. Levels of IL-1β, IL-6, IFN-γ, and TNF-α were measured using the respective primate antibodies and levels of IL-8, MIP-1α, MCP-1, MIP-1β and RANTES were measured using the respective cross-reacting human antibodies. Measurements were taken 14 days before the start of treatment and on day 55, when the monkeys were euthanized.

[3] = Kidney function, BUN, urine protein to creatinine ratio in cynomolgus monkeys (Example 46); conditions: for Urine protein/creatinine ratio: day 49
Experimental: as §1
To evaluate the impact of ISIS oligonucleotides on kidney function, urine samples were collected on different days. […] The ratio of urine protein to creatinine in urine samples after antisense oligonucleotide treatment was also calculated for day 49 and results are presented in Table 156. As observed in Tables 155 and 156, there were no significant increases in any of the kidney metabolic markers after antisense oligonucleotide treatment.

[4] = day-14 (before start of treatment)
[5] = Day −5 (before start of treatment)
[6] = Day −14 (before start of treatment)

ISIS 445531: 5-8-5 or 6-8-6 MOE microwalk gapmer (Table 44) (antisense eG*eG*e[5mC]*eA*eT*dT*dG*dG*dT*dG*d[5mC]*dA*d[5mC]*eA*eG*eT*eT*eT)
body weight ([1]; day 1): 2125 g
body weight ([1]; day 8): 2119 g
body weight ([1]; day 15): 2109 g
body weight ([1]; day 22): 2143 g
body weight ([1]; day 29): 2148 g
body weight ([1]; day 36): 2191 g
body weight ([1]; day 43): 2233 g
body weight ([1]; day 50): 2197 g
Kidney weight [1]: 0.49
Liver weight [1]: 2.8
Spleen weight [1]: 0.24
body weight ([1]; day −7): 2092 g
body weight ([1]; day −14): 2079 g
IFN-γ level ([2]; day 55): 15 pg/mL
IL-1ß level ([2]; day 55): 155 pg/mL
IL-6 level ([2]; day 55): 1 pg/mL
IL-8 level ([2]; day 55): 293 pg/mL
MCP-1 level ([2]; day 55): 339 pg/mL
MIP-1ß level ([2]; day 55): 84 pg/mL
MIP-1α level ([2]; day 55): 12 pg/mL
RANTES level ([2]; day 55): 5935 pg/mL
TNF-α level ([2]; day 55): 16 pg/mL
IFN-γ level [2, 4]: 68 pg/mL
IL-1ß level [2, 4]: 101 pg/mL
IL-6 level [2, 4]: 2 pg/mL
IL-8 level [2, 4]: 83 pg/mL
MCP-1 level [2, 4]: 317 pg/mL
MIP-1ß level [2, 4]: 22 pg/mL
MIP-1α level [2, 4]: 25 pg/mL
RANTES level [2, 4]: 7825 pg/mL
TNF-α level [2, 4]: 9 pg/mL
BUN levels ([3]; Day 31): 20 mg/dL
BUN levels ([3]; Day 55): 22 mg/dL
BUN levels [3, 5]: 18 mg/dL
BUN levels [3, 6]: 22 mg/dL
Urine protein/creatinine ratio [3]: 0.08

ISIS 449707: 3-8-3, 4-8-4, 2-10-2, 3-10-3 or 4-10-4 MOE microwalk gapmer (Table 46) (antisense e[5mC]*eA*e[5mC]*eA*dG*dT*dT*dT*d[5mC]*dT*dG*dG*e[5mC]*eA*eG*eG)
body weight ([1]; day 1): 2107 g
body weight ([1]; day 8): 2088 g
body weight ([1]; day 15): 2120 g
body weight ([1]; day 22): 2142 g
body weight ([1]; day 29): 2155 g
body weight ([1]; day 36): 2158 g
body weight ([1]; day 43): 2197 g
body weight ([1]; day 50): 2185 g
Kidney weight [1]: 0.53
Liver weight [1]: 2.5
Spleen weight [1]: 0.24
body weight ([1]; day −7): 2083 g
body weight ([1]; day −14): 2072 g
IFN-γ level ([2]; day 55): 24 pg/mL
IL-1ß level ([2]; day 55): 97 pg/mL
IL-6 level ([2]; day 55): 1 pg/mL
IL-8 level ([2]; day 55): 48 pg/mL
MCP-1 level ([2]; day 55): 264 pg/mL
MIP-1ß level ([2]; day 55): 49 pg/mL
MIP-1α level ([2]; day 55): 12 pg/mL
RANTES level ([2]; day 55): 1193 pg/mL
TNF-α level ([2]; day 55): 16 pg/mL
IFN-γ level [2, 4]: 34 pg/mL
IL-1ß level [2, 4]: 115 pg/mL
IL-6 level [2, 4]: 1 pg/mL
IL-8 level [2, 4]: 106 pg/mL
MCP-1 level [2, 4]: 294 pg/mL
MIP-1ß level [2, 4]: 13 pg/mL
MIP-1α level [2, 4]: 16 pg/mL
RANTES level [2, 4]: 3014 pg/mL
TNF-α level [2, 4]: 6 pg/mL
BUN levels ([3]; Day 31): 21 mg/dL
BUN levels ([3]; Day 55): 20 mg/dL
BUN levels [3, 5]: 21 mg/dL
BUN levels [3, 6]: 25 mg/dL
Urine protein/creatinine ratio [3]: 0.03

ISIS 449708: 3-8-3, 4-8-4, 2-10-2, 3-10-3 or 4-10-4 MOE microwalk gapmer (Table 46) (antisense eA*e[5mC]*eA*dG*dT*dT*dT*d[5mC]*dT*dG*dG*e[5mC]*eA*eG)
body weight ([1]; day 1): 2130 g
body weight ([1]; day 8): 2148 g
body weight ([1]; day 15): 2125 g
body weight ([1]; day 22): 2110 g
body weight ([1]; day 29): 2095 g
body weight ([1]; day 36): 2100 g
body weight ([1]; day 43): 2125 g
body weight ([1]; day 50): 2076 g
Kidney weight [1]: 0.60
Liver weight [1]: 2.6
Spleen weight [1]: 0.19
body weight ([1]; day −7): 2163 g
body weight ([1]; day −14): 2096 g
IFN-γ level ([2]; day 55): 18 pg/mL
IL-1ß level ([2]; day 55): 131 pg/mL
IL-6 level ([2]; day 55): 0 pg/mL
IL-8 level ([2]; day 55): 85 pg/mL
MCP-1 level ([2]; day 55): 409 pg/mL
MIP-1ß level ([2]; day 55): 128 pg/mL
MIP-1α level ([2]; day 55): 23 pg/mL
RANTES level ([2]; day 55): 4561 pg/mL
TNF-α level ([2]; day 55): 17 pg/mL
IFN-γ level [2, 4]: 27 pg/mL
IL-1ß level [2, 4]: 35 pg/mL
IL-6 level [2, 4]: 1 pg/mL
IL-8 level [2, 4]: 184 pg/mL
MCP-1 level [2, 4]: 361 pg/mL
MIP-1ß level [2, 4]: 19 pg/mL
MIP-1α level [2, 4]: 11 pg/mL
RANTES level [2, 4]: 11666 pg/mL
TNF-α level [2, 4]: 12 pg/mL
BUN levels ([3]; Day 31): 23 mg/dL
BUN levels ([3]; Day 55): 23 mg/dL
BUN levels [3, 5]: 23 mg/dL
BUN levels [3, 6]: 25 mg/dL
Urine protein/creatinine ratio [3]: 0.00

Reference: patent publication US20230263822A1, “MODULATION OF FACTOR 11 EXPRESSION” (Ionis Pharmaceuticals, Inc., priority 2008, published 2023)
